From US11802129B1, “Pyrido[3,4-b]indol-1-one compounds as anticancer agents” (KING FAISAL UNIVERSITY, priority 2023, dated 2023)

Columns and labels:
Leukemia P388 = assay: In vitro cytotoxic activity (MTT) assay, Leukemia P388; assay type: cell-based; conditions: Mus musculus; Murine Leukemia P388 cells, exposed for 96 hours
Experimental: (§1) Compounds 1-10 were screened for their in vitro cytotoxic activity utilizing a 3-(4,5-dimethyl-thiazol-2-yl)-2,5-diphenyltetrazolium bromide (MTT) assay against selected cancer murine and human cancer cell lines (T. Mosmann, J. Immunol. Meth., 1983, 65, 55-63). The cells were cultured at 37° C. in RMPI1640 medium supplemented with 10% fetal bovine serum, 50 IU/mL penicillin, and 50 μg/mL streptomycin in a 5% CO2 incubator. All cells were sub-cultured 3 times/week by trypsinisation. Viable cells were seeded and allowed to adhere for 12 h before a test drug was added in 96-well plates at an initial density of 1.0×10^5 cells/mL. Tumour cell lines were separately exposed to various concentrations of the tested compounds followed by incubation at a temperature of 37° C. during 4 days inside a medium of fresh RMPI 1640. Cells were subsequently incubated at 37° C. using MTT at 0.5 mg/mL during 4 h. After removal of supernatant, formazan crystals were dissolved in isopropanol and the optical density was measured at 570 nm. CX-4945 has been used as a positive control.

B16 melanoma = assay: In vitro cytotoxic activity (MTT) assay, B16 melanoma; assay type: cell-based; conditions: Mus musculus; Murine B16 melanoma cells, exposed for 96 hours
Experimental: as §1

Colon C38 adenocarcinoma = assay: In vitro cytotoxic activity (MTT) assay, Colon C38 adenocarcinoma; assay type: cell-based; conditions: Mus musculus; Murine Colon C38 adenocarcinoma cells, exposed for 96 hours
Experimental: as §1

PC3 (prostate) = assay: In vitro cytotoxic activity (MTT) assay, PC3; assay type: cell-based; conditions: Prostate cell; Human PC3 (prostate) cells, exposed for 96 hours
Experimental: as §1

HCT116 (colon) = assay: In vitro cytotoxic activity (MTT) assay, HCT116; assay type: cell-based; conditions: HCT-116; Human HCT116 (colon) cells, exposed for 96 hours
Experimental: as §1

A375 (melanoma) = assay: In vitro cytotoxic activity (MTT) assay, A375; assay type: cell-based; conditions: A-375; Human A375 (melanoma) cells, exposed for 96 hours
Experimental: as §1

H1299 (lung) = assay: In vitro cytotoxic activity (MTT) assay, H1299; assay type: cell-based; conditions: NCI-H1299; Human H1299 (lung) cells, exposed for 96 hours
Experimental: as §1

MIAPaCa-2 (pancreas) = assay: In vitro cytotoxic activity (MTT) assay, MIAPaCa-2; assay type: cell-based; conditions: MIA PaCa-2; Human MIAPaCa-2 (pancreas) cells, exposed for 96 hours
Experimental: as §1

HL60 (leukemia) = assay: In vitro cytotoxic activity (MTT) assay, HL60; assay type: cell-based; conditions: HL-60; Human HL60 (leukemia) cells, exposed for 96 hours
Experimental: as §1

MCF7 (breast) = assay: In vitro cytotoxic activity (MTT) assay, MCF7; assay type: cell-based; conditions: Human MCF7 (breast) cells, exposed for 96 hours
Experimental: as §1

MDA-MB-231 (breast) = assay: In vitro cytotoxic activity (MTT) assay, MDA-MB-231; assay type: cell-based; conditions: Human MDA-MB-231 (breast) cells, exposed for 96 hours
Experimental: as §1

CK2 = biological target: T1, CK2 (Homo sapiens, UniProt P68400); assay: In vitro CK2 inhibitory assay (CK2 assay kit); assay type: biochemical; conditions: CK2 assay kit (Upstate Biotechnology)
T1 construct: purchased Upstate Biotechnology, Lake Placid, NY, USA
Experimental: CK2 activity was assessed by using a CK2 assay kit (Upstate Biotechnology, Lake Placid, NY, USA) according to the manufacturer's instructions [T. Tiganis, C. M. House, B. E. Kemp, Arch. Biochem. Biophys. 1996,325, 289-294].

T1 sequence (P68400 whole entry): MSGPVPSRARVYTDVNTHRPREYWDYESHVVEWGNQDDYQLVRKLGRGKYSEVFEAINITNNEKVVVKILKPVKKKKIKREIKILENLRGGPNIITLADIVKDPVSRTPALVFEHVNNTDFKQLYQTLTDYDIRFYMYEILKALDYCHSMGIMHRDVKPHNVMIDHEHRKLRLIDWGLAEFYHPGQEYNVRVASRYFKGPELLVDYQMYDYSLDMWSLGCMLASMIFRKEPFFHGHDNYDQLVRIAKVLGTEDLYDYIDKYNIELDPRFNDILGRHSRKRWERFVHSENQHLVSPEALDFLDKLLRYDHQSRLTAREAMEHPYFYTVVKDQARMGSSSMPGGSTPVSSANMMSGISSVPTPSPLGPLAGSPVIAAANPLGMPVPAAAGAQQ

## O=C(O)c1ccc2[nH]c3c(=O)[nH]cc(Nc4cccc(Cl)c4)c3c2c1 [Example 3, 4-((3-chlorophenyl)amino)-1-oxo-2,9-dihydro-1H-pyrido[3,4-b]indole-6-carboxylic acid]
Leukemia P388
  IC50: 5.5 µM
B16 melanoma
  IC50: 6.8 µM
Colon C38 adenocarcinoma
  IC50: 4.4 µM
PC3 (prostate)
  IC50: 2.6 µM
HCT116 (colon)
  IC50: 3.3 µM
A375 (melanoma)
  IC50: 4.4 µM
H1299 (lung)
  IC50: 2.1 µM
MIAPaCa-2 (pancreas)
  IC50: 5.7 µM
HL60 (leukemia)
  IC50: 6.3 µM
MCF7 (breast)
  IC50: 7.5 µM
MDA-MB-231 (breast)
  IC50: 6.6 µM
CK2
  IC50: 0.005 µM
